Results from publication PMC5034043 (The Journal of Biological Chemistry, 2016).
Entries after “also recorded” stand apart in the source; their conditions may differ.

Experiments:
[1] = at even 100-fold higher concentrations than propofol; cited from earlier work
α1β2γ2 GABAA receptors = conditions: heterologously expressed receptors; cited from earlier work
GABAA receptor subunits = test: Western blotting of streptavidin-captured GABAA receptor subunits with ligand protection; type: binding, mouse; conditions: AziPm-click (1) 10 μM, protecting ligand 100 μM, UV irradiation; n = 4
Description: (§1) Synaptosomes were resuspended to 1 mg of protein/ml in HEPES buffer medium (in mM: 140 NaCl, 5 KCl, 5 NaHCO3, 1.2 NaH2PO4, 1 MgCl2, 10 glucose, and 10 HEPES (pH 7.4)). […] The samples were allowed to equilibrate for 5 min before being transferred to a parafilm-sealed 1-mm path length quartz cuvette. The sample was then irradiated for 20 min at a peak bandwidth of 350 nm (Rayonet RPR-3500 lamp) ∼6 cm from the light source. Non-irradiated samples were left in the dark at ambient temperature (22–25 °C) for 20 min. All remaining procedures were conducted with restricted light exposure.
To 750 μg of photolabeled or control synaptosome samples, 40 μl of 10% SDS and 2 μl of 5 mM DTT in water were added. Samples were then vortexed, heated for 10 min at 65 °C, and then briefly cooled. Final concentrations of 150 μM azide-biotin (Click Chemistry Tools), 2 mM tris(3-hydroxypropyltriazolylmethyl)amine (Sigma), 1 mM ascorbic acid (Sigma), and 1 mM CuSO4·5H2O (Sigma) were added to each sample and vortexed vigorously. The samples were left in the dark at ambient temperature (22–25 °C) for 1 h with mild agitation. Directly to each sample 4× volume chilled methanol, 1.5× chilled chloroform, and 3× chilled double distilled H2O were added. Samples were vortexed vigorously and centrifuged at 1,400 × g for 30 min at 4 °C. […]

[2] = tested on: alkylphenol-binding proteins within synaptosomes; test: Fluorescent profiling: protection from AziPm-click (1) photolabeling of synaptosomes; design: species or system mouse; conditions: propofol 75–375 μM; ketamine 150–450 μM; triplicate
Description: as §1

In the case of `CC(C)c1cccc(C(C)C)c1F` [fropofol, 2-fluoro-1,3-diisopropylbenzene], the immobilization [1] is listed as “did not cause immobilization”, the “activity on GABAA receptor” value (α1β2γ2 GABAA receptors) is listed as “did not modulate or disrupt propofol potentiation; also recorded: no activity” and the “protection of GABAA receptor α and β subunits from AziPm-click (1) capture” value (GABAA receptor subunits) is listed as “unable to protect”.

For `CNC1(c2ccccc2Cl)CCCCC1=O` (stereo not shown) [ketamine], the “fluorescent labeling of synaptosomal proteins by AziPm-click (1) in presence of protecting ligand” value [2] was “no changes in fluorescence intensity”.
